Results taken from patent US20200131156A1, “ARYLSULFONYLPYROLECARBOXAMIDE DERIVATIVES AS Kv3 POTASSIUM CHANNEL ACTIVATORS” (H. Lundbeck A/S, priority 2018, published 2020).
Where two headings read alike, the source gives them in different places.

What was measured:
Assay type in all cases: cell-based
hKv7.2/7.3 = hKv7.2/7.3 (Homo sapiens, UniProt O43525+O43526); experiment: Off-target Kv7.2/7.3 activation, fluorescence-based ion flux assay (FDSS); settings: up to 30 μM
Description: (§1) The activity of selected compound examples at three key ion channel off targets was measured, namely Nav1.1, Kv1.1/1.2 and Kv7.2/7.3.
Effects of selected examples on activation of the voltage gated heteromeric potassium channel Kv7.2/7.3 was tested in a fluorescence-based ion flux assay at concentrations up to 30 μM.

hKv3.1b = biological target: T1, hKv3.1b (Homo sapiens, UniProt P48547); experiment: Automated patch clamp (QPatch-16x) on HEK-293 cells stably expressing hKv3.1b; settings: for hKv3.1 (Qpatch) ECΔ30% increase: concentration increasing current by 30% at the −10 mV step; for hKv3.1 (Qpatch) ECΔ30% increase / hKv3.1 (Qpatch) ECΔ5 mV: automated patch clamp; for ECdelta5 mV: concentration needed to shift the activation threshold 5 mV; for hKv3.1 (Qpatch) ECΔ5 mV: concentration that shifts activation threshold by 5 mV in hyperpolarized direction; for Threshold Shift: maximum absolute hyperpolarizing shift of activation threshold at tested concentrations 0.37-30 μM
T1 construct: expressed in transfected cells
T1 sequence (P48547 1-585 isoform P48547-2): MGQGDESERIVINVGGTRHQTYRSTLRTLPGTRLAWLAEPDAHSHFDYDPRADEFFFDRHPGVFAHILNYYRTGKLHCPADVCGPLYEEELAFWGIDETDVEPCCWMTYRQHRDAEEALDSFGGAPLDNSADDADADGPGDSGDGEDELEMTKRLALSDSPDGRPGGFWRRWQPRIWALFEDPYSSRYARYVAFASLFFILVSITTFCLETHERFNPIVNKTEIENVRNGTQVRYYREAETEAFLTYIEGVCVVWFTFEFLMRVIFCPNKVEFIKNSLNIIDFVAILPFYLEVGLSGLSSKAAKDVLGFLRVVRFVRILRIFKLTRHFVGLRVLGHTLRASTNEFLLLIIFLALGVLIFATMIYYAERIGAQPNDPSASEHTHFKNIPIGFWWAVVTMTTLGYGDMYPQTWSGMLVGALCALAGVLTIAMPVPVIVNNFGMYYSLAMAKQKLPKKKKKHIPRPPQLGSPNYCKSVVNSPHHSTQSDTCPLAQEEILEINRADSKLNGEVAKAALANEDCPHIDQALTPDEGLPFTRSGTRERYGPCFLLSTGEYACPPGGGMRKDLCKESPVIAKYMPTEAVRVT
Outline: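 Whole-cell automated patch clamp, extracellular pH 7.4, 4 mM Na2ATP intracellular; holding −80 mV, 200 ms steps −70 to +10 mV. Five ascending concentrations (0.37–30 μM) per cell, ~3 min each, 0.33% DMSO vehicle. Activation threshold (5% of vehicle peak at 10 mV) shift fitted sigmoidally; ECdelta5 mV read from curve.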

hKv1.1/1.2 = hKv1.1/1.2 (Homo sapiens, UniProt P16389+Q09470); experiment: Off-target Kv1.1/1.2 inhibition electrophysiology (Qpatch); settings: up to 30 μM
Description: as §1
Effects of selected examples on inhibition of the voltage gated heteromeric potassium channel Kv1.1/1.2 was also tested in a use-dependent manner by electrophysiology at concentrations up to 30 μM.

[1] = resting, read-out: hKv1.1/1.2 (Qpatch) Resting IC50
[2] = use-dependent, read-out: hKv1.1/1.2 (Qpatch) Use-dependent IC50

hKv1.1/1.2, sequence (Q09470 whole entry): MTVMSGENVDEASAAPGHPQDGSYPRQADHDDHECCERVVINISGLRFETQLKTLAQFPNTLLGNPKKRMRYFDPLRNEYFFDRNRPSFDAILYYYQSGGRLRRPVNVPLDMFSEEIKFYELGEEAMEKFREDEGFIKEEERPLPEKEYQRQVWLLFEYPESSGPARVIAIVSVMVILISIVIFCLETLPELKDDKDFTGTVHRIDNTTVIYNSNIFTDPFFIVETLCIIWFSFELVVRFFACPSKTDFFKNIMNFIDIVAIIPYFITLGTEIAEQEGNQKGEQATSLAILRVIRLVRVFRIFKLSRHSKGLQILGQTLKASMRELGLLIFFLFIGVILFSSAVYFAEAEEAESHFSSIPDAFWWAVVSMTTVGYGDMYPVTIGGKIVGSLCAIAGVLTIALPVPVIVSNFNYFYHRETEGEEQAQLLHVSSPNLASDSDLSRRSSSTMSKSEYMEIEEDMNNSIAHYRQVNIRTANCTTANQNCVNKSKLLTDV
hKv1.1/1.2, sequence (P16389 whole entry): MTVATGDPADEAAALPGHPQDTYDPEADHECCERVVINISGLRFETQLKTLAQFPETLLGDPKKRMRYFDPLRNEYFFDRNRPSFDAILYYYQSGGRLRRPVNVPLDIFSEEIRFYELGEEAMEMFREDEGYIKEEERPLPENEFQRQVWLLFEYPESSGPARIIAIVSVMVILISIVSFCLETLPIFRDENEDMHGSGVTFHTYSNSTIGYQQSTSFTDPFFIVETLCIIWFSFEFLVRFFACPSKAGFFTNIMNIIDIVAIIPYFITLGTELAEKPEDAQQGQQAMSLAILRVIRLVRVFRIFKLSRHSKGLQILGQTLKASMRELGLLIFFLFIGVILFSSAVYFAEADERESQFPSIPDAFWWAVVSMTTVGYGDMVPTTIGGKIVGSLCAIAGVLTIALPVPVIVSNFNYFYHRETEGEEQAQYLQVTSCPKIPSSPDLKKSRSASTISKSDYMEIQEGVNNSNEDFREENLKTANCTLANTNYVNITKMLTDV

EC50 (hKv7.2/7.3) [µM]	hKv3.1 (Qpatch) ECΔ30% increase (hKv3.1b) [µM]	ECdelta5 mV (hKv3.1b) [nM]	hKv3.1 (Qpatch) ECΔ5 mV (hKv3.1b) [µM]	Threshold Shift (hKv3.1b) [mV]	IC50 (hKv1.1/1.2; [1]) [µM]	IC50 (hKv1.1/1.2; [2]) [µM]	SMILES
> 30	2.9	2800	2.7	17	> 30	≥ 30	Cc1ccc(S(=O)(=O)n2ccc(C(=O)NCc3ncco3)c2)cc1 [Compound 86, 1-(4-methylbenzene-1-sulfonyl)-N-[(1,3-oxazol-2-yl)methyl]-1H-pyrrole-3-carboxamide]
> 30	1.6	1300	1.2	32	> 30	> 30	Cc1cnc(CNC(=O)c2ccn(S(=O)(=O)c3ccc(F)cc3C)c2)cn1 [Compound 90, 1-(4-fluoro-2-methylbenzene-1-sulfonyl)-N-[(5-methylpyrazin-2-yl)methyl]-1H-pyrrole-3-carboxamide]
